These results are taken from BindingDB's records for doi:10.1016/j.bmcl.2006.01.057 (Glaxosmithkline, 2006).

Chain of Glycogen synthase kinase-3 beta (P49841 whole entry): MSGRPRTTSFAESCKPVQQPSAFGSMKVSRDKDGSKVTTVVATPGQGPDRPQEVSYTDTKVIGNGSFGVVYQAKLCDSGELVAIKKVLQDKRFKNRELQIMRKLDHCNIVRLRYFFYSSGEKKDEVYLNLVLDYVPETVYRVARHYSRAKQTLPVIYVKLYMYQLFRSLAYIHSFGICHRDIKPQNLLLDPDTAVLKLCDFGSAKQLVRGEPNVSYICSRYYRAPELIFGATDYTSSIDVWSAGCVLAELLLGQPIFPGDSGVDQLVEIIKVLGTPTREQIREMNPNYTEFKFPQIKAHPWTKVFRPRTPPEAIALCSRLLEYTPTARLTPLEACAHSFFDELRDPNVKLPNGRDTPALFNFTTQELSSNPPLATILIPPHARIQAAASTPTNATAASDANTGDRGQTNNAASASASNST

The target in this experiment is Glycogen synthase kinase-3 beta (Homo sapiens, UniProt P49841). The experiment in a line: Kinase Inhibition SPA Assay. The conditions noted are these: pH 7.2; 22 °C. Here is the method:
The biochemical activity of compounds was determined by incubation with specific enzyme and substrate in the presence 2.5 uM ATP/ [gamma-33P] ATP. After incubation, the reaction was stopped and the phosphorylated substrate was separated from nonincorporated radioactive ATP using Streptavidin-coated SPA beads (Amersham Pharmacia), counted using TopCount (Packard) to measure substrate-incorporated phosphate.
Consider `COc1cccc(-n2ncc3c(N=NCc4ccncc4)ncnc32)c1` [4-[(1E)-{2-[1-(3-methoxyphenyl)-1H-pyrazolo[3,4-d]pyrimidin-4-yl]hydrazin-1-ylidene}methyl]pyridine], for which the midpoint of inhibition, the IC50, lay at 6.3 nM.

`COc1cccc(-c2n[nH]c3c(N=NCc4ccncc4)ncnc23)c1` [4-[(1E)-{2-[3-(3-methoxyphenyl)-1H-pyrazolo[4,3-d]pyrimidin-7-yl]hydrazin-1-ylidene}methyl]pyridine] registered an IC50 of 5.01 nM. The IC50 values of the last two compounds are within 1.5-fold of each other. Under `COc1cccc(-c2cn(C)c3c(N=NCc4ccncc4)ncnc23)c1` [4-[(1E)-{2-[7-(3-methoxyphenyl)-5-methyl-5H-pyrrolo[3,2-d]pyrimidin-4-yl]hydrazin-1-ylidene}methyl]pyridine] stands 501 nM; under `COc1cccc(-c2c[nH]c3c(N=NCc4ccncc4)ncnc23)c1` [4-[(1E)-{2-[7-(3-methoxyphenyl)-5H-pyrrolo[3,2-d]pyrimidin-4-yl]hydrazin-1-ylidene}methyl]pyridine], 5.01 nM; under `COc1cccc(-n2ccc3c(N=NCc4ccncc4)ncnc32)c1` [4-[(1E)-{2-[7-(3-methoxyphenyl)-7H-pyrrolo[2,3-d]pyrimidin-4-yl]hydrazin-1-ylidene}methyl]pyridine], 31.6 nM.

On to `COc1cccc(-n2cnc3c(N=NCc4ccncc4)ncnc32)c1` [9-(3-methoxyphenyl)-6-[(2E)-2-(pyridin-4-ylmethylidene)hydrazin-1-yl]-9H-purine], for which the IC50 is 631 nM.

Usually IC50 stands for the concentration that gives 50% inhibition.
